Laboratory results reported in ChEMBL document CHEMBL2413038, “Synthesis and bioevaluation of novel 4-aminoquinoline-tetrazole derivatives as potent antimalarial agents” (Eur J Med Chem, 2013).
≈ marks a conversion by molar mass, not a printed value. Calls of active or inactive are those of the source. The rule behind the calls is not given here.

tested on: Plasmodium falciparum; test: Antimalarial activity against chloroquine-resistant Plasmodium falciparum K1 after 72 hrs by MSF assay; assay type: functional, organism-based; conditions: K1, 72 h

| SMILES | IC50 |
| --- | --- |
| COc1ccc(C(Nc2ccc(Nc3ccnc4cc(Cl)ccc34)cc2)c2nnnn2C(C)(C)C)cc1OC (configuration not stated) | 76.2 nM |
| COc1cc(C(Nc2ccc(Nc3ccnc4cc(Cl)ccc34)cc2)c2nnnn2C(C)(C)C)cc(OC)c1OC (configuration not stated) | 573 nM |
| CC(C)(C)n1nnnc1C(Nc1ccc(Nc2ccnc3cc(Cl)ccc23)cc1)c1ccc(Cl)cc1 (configuration not stated) | 143 nM |
| CC(C)(C)n1nnnc1C(Nc1ccc(Nc2ccnc3cc(Cl)ccc23)cc1)c1ccc(F)cc1 (configuration not stated) | 669 nM |
| CC(C)(C)n1nnnc1C(Nc1ccc(Nc2ccnc3cc(Cl)ccc23)cc1)c1ccc(Br)cc1 (configuration not stated) | 234 nM |

tested on: Plasmodium yoelii; test: Antimalarial activity against chloroquine-resistant Plasmodium yoelii N-67 infected in Swiss mouse assessed as mouse survival at 50 mg/kg, ip qd for 4 days measured on day 28 post infection relative to control; assay type: functional; conditions: not given

| SMILES | Activity |
| --- | --- |
| COc1ccc(C(Nc2ccc(Nc3ccnc4cc(Cl)ccc34)cc2)c2nnnn2C(C)(C)C)cc1OC (configuration not stated) | inactive |

same assay, conditions: route intraperitoneal

| SMILES | Activity |
| --- | --- |
| CC(C)(C)n1nnnc1C(Nc1ccc(Nc2ccnc3cc(Cl)ccc23)cc1)c1ccc(Cl)cc1 (configuration not stated) | 60% |
| CC(C)(C)n1nnnc1C(Nc1ccc(Nc2ccnc3cc(Cl)ccc23)cc1)c1ccc(Br)cc1 (configuration not stated) | 80% |

tested on: not listed separately; test: AUC (0 to t) in Sprague-Dawley rat at 10 mg/kg, po; assay type: ADME, organism-based; parameters: dose 10 mg/kg, route oral; conditions: plasma

| SMILES | AUC(0-t) |
| --- | --- |
| CC(C)(C)n1nnnc1C(Nc1ccc(Nc2ccnc3cc(Cl)ccc23)cc1)c1ccc(Cl)cc1 (configuration not stated) | 593 ng·h/mL |
| CC(C)(C)n1nnnc1C(Nc1ccc(Nc2ccnc3cc(Cl)ccc23)cc1)c1ccc(Br)cc1 (configuration not stated) | 704 ng·h/mL |

tested on: Plasmodium yoelii; test: Antimalarial activity against chloroquine-resistant Plasmodium yoelii N-67 infected in Swiss mouse assessed as mean survival time at 50 mg/kg, ip qd for 4 days; assay type: functional; conditions: route intraperitoneal

| SMILES | MST |
| --- | --- |
| COc1ccc(C(Nc2ccc(Nc3ccnc4cc(Cl)ccc34)cc2)c2nnnn2C(C)(C)C)cc1OC (configuration not stated) | 9.8 days |
| CC(C)(C)n1nnnc1C(Nc1ccc(Nc2ccnc3cc(Cl)ccc23)cc1)c1ccc(Cl)cc1 (configuration not stated) | 23.6 days |
| CC(C)(C)n1nnnc1C(Nc1ccc(Nc2ccnc3cc(Cl)ccc23)cc1)c1ccc(Br)cc1 (configuration not stated) | 26 days |

tested on: Plasma; test: Inhibition of beta-hematin formation in Plasmodium yoelii-infected Swiss albino mouse plasma using hemin as substrate after 16 hrs; assay type: functional, cell-free; conditions: not given

| SMILES | IC50 | inhibition |
| --- | --- | --- |
| COc1ccc(C(Nc2ccc(Nc3ccnc4cc(Cl)ccc34)cc2)c2nnnn2C(C)(C)C)cc1OC (configuration not stated) | 5.42 µg/mL (≈ 9.96 µM) | Dose-dependent effect |
| COc1cc(C(Nc2ccc(Nc3ccnc4cc(Cl)ccc34)cc2)c2nnnn2C(C)(C)C)cc(OC)c1OC (configuration not stated) | 5.65 µg/mL (≈ 9.84 µM) | Dose-dependent effect |
| CC(C)(C)n1nnnc1C(Nc1ccc(Nc2ccnc3cc(Cl)ccc23)cc1)c1ccc(Cl)cc1 (configuration not stated) | 5.29 µg/mL (≈ 10.2 µM) | Dose-dependent effect |
| CC(C)(C)n1nnnc1C(Nc1ccc(Nc2ccnc3cc(Cl)ccc23)cc1)c1ccc(F)cc1 (configuration not stated) | 5.49 µg/mL (≈ 10.9 µM) | Dose-dependent effect |
| CC(C)(C)n1nnnc1C(Nc1ccc(Nc2ccnc3cc(Cl)ccc23)cc1)c1ccc(Br)cc1 (configuration not stated) | 5.65 µg/mL (≈ 10 µM) | Dose-dependent effect |

tested on: Plasmodium falciparum; test: Antimalarial activity against chloroquine-sensitive Plasmodium falciparum 3D7 after 72 hrs by MSF assay; assay type: functional, organism-based; conditions: 3D7, 72 h

| SMILES | IC50 |
| --- | --- |
| COc1ccc(C(Nc2ccc(Nc3ccnc4cc(Cl)ccc34)cc2)c2nnnn2C(C)(C)C)cc1OC (configuration not stated) | 70.6 nM |
| COc1cc(C(Nc2ccc(Nc3ccnc4cc(Cl)ccc34)cc2)c2nnnn2C(C)(C)C)cc(OC)c1OC (configuration not stated) | 54.2 nM |
| CC(C)(C)n1nnnc1C(Nc1ccc(Nc2ccnc3cc(Cl)ccc23)cc1)c1ccc(Cl)cc1 (configuration not stated) | 10.7 nM |
| CC(C)(C)n1nnnc1C(Nc1ccc(Nc2ccnc3cc(Cl)ccc23)cc1)c1ccc(F)cc1 (configuration not stated) | 29.5 nM |
| CC(C)(C)n1nnnc1C(Nc1ccc(Nc2ccnc3cc(Cl)ccc23)cc1)c1ccc(Br)cc1 (configuration not stated) | 11.8 nM |

tested on: Plasmodium yoelii; test: Antimalarial activity against chloroquine-resistant Plasmodium yoelii N-67 infected in Swiss mouse assessed as cured animal at 100 mg/kg, po for 4 days measured on day 28 post infection relative to control; assay type: functional; conditions: not given

| SMILES | Activity |
| --- | --- |
| CC(C)(C)n1nnnc1C(Nc1ccc(Nc2ccnc3cc(Cl)ccc23)cc1)c1ccc(Cl)cc1 (configuration not stated) | 60% |
| CC(C)(C)n1nnnc1C(Nc1ccc(Nc2ccnc3cc(Cl)ccc23)cc1)c1ccc(Br)cc1 (configuration not stated) | 40% |

tested on: not listed separately; test: Elimination half life in Sprague-Dawley rat at 10 mg/kg, po; assay type: ADME, organism-based; parameters: dose 10 mg/kg, route oral; conditions: in vivo, read-out: beta t1/2 (converted)

| SMILES | half-life |
| --- | --- |
| CC(C)(C)n1nnnc1C(Nc1ccc(Nc2ccnc3cc(Cl)ccc23)cc1)c1ccc(Cl)cc1 (configuration not stated) | 5.27 h |
| CC(C)(C)n1nnnc1C(Nc1ccc(Nc2ccnc3cc(Cl)ccc23)cc1)c1ccc(Br)cc1 (configuration not stated) | 22.6 h |

tested on: Plasmodium yoelii; test: Antimalarial activity against chloroquine-resistant Plasmodium yoelii N-67 infected in Swiss mouse assessed as suppression of parasitaemia level at 100 mg/kg, po qd for 4 days relative to control; assay type: functional; conditions: not given

| SMILES | Activity |
| --- | --- |
| CC(C)(C)n1nnnc1C(Nc1ccc(Nc2ccnc3cc(Cl)ccc23)cc1)c1ccc(Cl)cc1 (configuration not stated) | 99.99% |
| CC(C)(C)n1nnnc1C(Nc1ccc(Nc2ccnc3cc(Cl)ccc23)cc1)c1ccc(Br)cc1 (configuration not stated) | 99.99% |

tested on: not listed separately; test: Clearance in Sprague-Dawley rat at 10 mg/kg, po; assay type: ADME, organism-based; parameters: dose 10 mg/kg, route oral; conditions: in vivo

| SMILES | CL/F |
| --- | --- |
| CC(C)(C)n1nnnc1C(Nc1ccc(Nc2ccnc3cc(Cl)ccc23)cc1)c1ccc(Cl)cc1 (configuration not stated) | 61.7 mL/min |
| CC(C)(C)n1nnnc1C(Nc1ccc(Nc2ccnc3cc(Cl)ccc23)cc1)c1ccc(Br)cc1 (configuration not stated) | 32.3 mL/min |

tested on: Plasmodium yoelii; test: Antimalarial activity against chloroquine-resistant Plasmodium yoelii N-67 infected in Swiss mouse assessed as cured animal at 50 mg/kg, ip qd for 4 days measured on day 28 post infection relative to control; assay type: functional; conditions: not given

| SMILES | Activity |
| --- | --- |
| COc1ccc(C(Nc2ccc(Nc3ccnc4cc(Cl)ccc34)cc2)c2nnnn2C(C)(C)C)cc1OC (configuration not stated) | inactive |

same assay, conditions: route intraperitoneal

| SMILES | Activity |
| --- | --- |
| CC(C)(C)n1nnnc1C(Nc1ccc(Nc2ccnc3cc(Cl)ccc23)cc1)c1ccc(Cl)cc1 (configuration not stated) | 60% |
| CC(C)(C)n1nnnc1C(Nc1ccc(Nc2ccnc3cc(Cl)ccc23)cc1)c1ccc(Br)cc1 (configuration not stated) | 60% |

tested on: not listed separately; test: Cmax in Sprague-Dawley rat at 10 mg/kg, po; assay type: ADME, organism-based; parameters: dose 10 mg/kg, route oral; conditions: in vivo

| SMILES | Cmax |
| --- | --- |
| CC(C)(C)n1nnnc1C(Nc1ccc(Nc2ccnc3cc(Cl)ccc23)cc1)c1ccc(Cl)cc1 (configuration not stated) | 49.2 ng/mL |
| CC(C)(C)n1nnnc1C(Nc1ccc(Nc2ccnc3cc(Cl)ccc23)cc1)c1ccc(Br)cc1 (configuration not stated) | 44.4 ng/mL |

tested on: Plasmodium yoelii; test: Antimalarial activity against chloroquine-resistant Plasmodium yoelii N-67 infected in Swiss mouse assessed as mean survival time at 100 mg/kg, po qd for 4 days; assay type: functional; conditions: not given

| SMILES | MST |
| --- | --- |
| CC(C)(C)n1nnnc1C(Nc1ccc(Nc2ccnc3cc(Cl)ccc23)cc1)c1ccc(Cl)cc1 (configuration not stated) | 25.2 days |
| CC(C)(C)n1nnnc1C(Nc1ccc(Nc2ccnc3cc(Cl)ccc23)cc1)c1ccc(Br)cc1 (configuration not stated) | 25.6 days |

tested on: Rattus norvegicus; test: Volume of distribution in Sprague-Dawley rat at 10 mg/kg, po; assay type: ADME, organism-based; parameters: dose 10 mg/kg, route oral; conditions: in vivo

| SMILES | Vd |
| --- | --- |
| CC(C)(C)n1nnnc1C(Nc1ccc(Nc2ccnc3cc(Cl)ccc23)cc1)c1ccc(Cl)cc1 (configuration not stated) | 28.16 L |
| CC(C)(C)n1nnnc1C(Nc1ccc(Nc2ccnc3cc(Cl)ccc23)cc1)c1ccc(Br)cc1 (configuration not stated) | 63.38 L |

tested on: Plasmodium yoelii; test: Antimalarial activity against chloroquine-resistant Plasmodium yoelii N-67 infected in Swiss mouse assessed as suppression of parasitaemia level at 50 mg/kg, ip qd for 4 days relative to control; assay type: functional; conditions: route intraperitoneal

| SMILES | Activity |
| --- | --- |
| COc1ccc(C(Nc2ccc(Nc3ccnc4cc(Cl)ccc34)cc2)c2nnnn2C(C)(C)C)cc1OC (configuration not stated) | 26.91% |
| CC(C)(C)n1nnnc1C(Nc1ccc(Nc2ccnc3cc(Cl)ccc23)cc1)c1ccc(Cl)cc1 (configuration not stated) | 99.99% |
| CC(C)(C)n1nnnc1C(Nc1ccc(Nc2ccnc3cc(Cl)ccc23)cc1)c1ccc(Br)cc1 (configuration not stated) | 99.99% |

tested on: not listed separately; test: Selectivity index, ratio of CC50 for African green monkey Vero cells to IC50 for Plasmodium falciparum; assay type: functional; conditions: not given

| SMILES | Ratio CC50/IC50 |
| --- | --- |
| COc1ccc(C(Nc2ccc(Nc3ccnc4cc(Cl)ccc34)cc2)c2nnnn2C(C)(C)C)cc1OC (configuration not stated) | 193.28 |
| COc1cc(C(Nc2ccc(Nc3ccnc4cc(Cl)ccc34)cc2)c2nnnn2C(C)(C)C)cc(OC)c1OC (configuration not stated) | 300.57 |
| CC(C)(C)n1nnnc1C(Nc1ccc(Nc2ccnc3cc(Cl)ccc23)cc1)c1ccc(Cl)cc1 (configuration not stated) | 4616.14 |
| CC(C)(C)n1nnnc1C(Nc1ccc(Nc2ccnc3cc(Cl)ccc23)cc1)c1ccc(F)cc1 (configuration not stated) | 3165.31 |
| CC(C)(C)n1nnnc1C(Nc1ccc(Nc2ccnc3cc(Cl)ccc23)cc1)c1ccc(Br)cc1 (configuration not stated) | 2332.43 |

tested on: Plasmodium falciparum; test: Resistance index, ratio of IC50 for chloroquine-resistant Plasmodium falciparum K1 to IC50 for chloroquine-sensitive Plasmodium falciparum 3D7; assay type: functional; conditions: not given

| SMILES | Ratio IC50 |
| --- | --- |
| COc1ccc(C(Nc2ccc(Nc3ccnc4cc(Cl)ccc34)cc2)c2nnnn2C(C)(C)C)cc1OC (configuration not stated) | 1 |
| COc1cc(C(Nc2ccc(Nc3ccnc4cc(Cl)ccc34)cc2)c2nnnn2C(C)(C)C)cc(OC)c1OC (configuration not stated) | 10.5 |
| CC(C)(C)n1nnnc1C(Nc1ccc(Nc2ccnc3cc(Cl)ccc23)cc1)c1ccc(Cl)cc1 (configuration not stated) | 13.4 |
| CC(C)(C)n1nnnc1C(Nc1ccc(Nc2ccnc3cc(Cl)ccc23)cc1)c1ccc(F)cc1 (configuration not stated) | 22.67 |
| CC(C)(C)n1nnnc1C(Nc1ccc(Nc2ccnc3cc(Cl)ccc23)cc1)c1ccc(Br)cc1 (configuration not stated) | 19.8 |

tested on: not listed separately; test: Tmax in Sprague-Dawley rat at 10 mg/kg, po; assay type: ADME, organism-based; parameters: dose 10 mg/kg, route oral; conditions: in vivo

| SMILES | Tmax |
| --- | --- |
| CC(C)(C)n1nnnc1C(Nc1ccc(Nc2ccnc3cc(Cl)ccc23)cc1)c1ccc(Cl)cc1 (configuration not stated) | 2 h |
| CC(C)(C)n1nnnc1C(Nc1ccc(Nc2ccnc3cc(Cl)ccc23)cc1)c1ccc(Br)cc1 (configuration not stated) | 1.5 h |

tested on: Plasmodium yoelii; test: Antimalarial activity against chloroquine-resistant Plasmodium yoelii N-67 infected in Swiss mouse assessed as mouse survival at 100 mg/kg, po qd for 4 days measured on day 28 post infection relative to control; assay type: functional; conditions: not given

| SMILES | Activity |
| --- | --- |
| CC(C)(C)n1nnnc1C(Nc1ccc(Nc2ccnc3cc(Cl)ccc23)cc1)c1ccc(Cl)cc1 (configuration not stated) | 60% |
| CC(C)(C)n1nnnc1C(Nc1ccc(Nc2ccnc3cc(Cl)ccc23)cc1)c1ccc(Br)cc1 (configuration not stated) | 60% |
